The series can be described thus: Glass transition temperature by differential scanning calorimetry (DSC). In kind it is physicochemical. As to conditions: trehalose lyophilized in the same manner as the composition; average of samples. As for the experimental part: The glass transition temperatures referred to herein (e.g., Tg(s) and Tg(c)) are the transition temperatures determined using differential scanning calorimetry (DSC). DSC measures the change in heat capacity between the glassy and rubbery states and is typically indicated by a change in baseline in a DSC thermogram.
The Tg(c) of the lyophilized composition was determined using a DSC Q2000 (TA Instruments) under a stream of nitrogen gas at 50 mL/minute as the purge gas. Several samples of the lyophilized composition (each about 5 mg) were prepared in a nitrogen purged glove box, and each was loaded into an aluminum DSC pan and hermetically sealed. The pans along with an empty pan as control were run in the DSC. The pans were first equilibrated at 25° C., then modulated at ±0.5° C. every 60 seconds, and then the temperature was raised at a rate of 2.5° C. per minute to a final temperature of 140° C. The samples was determined to have a Tg(c) of 97±2° C.
Several samples of trehalose were lyophilized in the same manner as set forth above for the caspofungin diacetate composition. The glass transition temperature Tg(s) of each of the lyophilized trehalose samples was determined using the instrument and procedure employed to determine Tg(c) described in the preceding paragraph. The average Tg(s) of the samples was 118±2° C.
For orientation: Differential scanning calorimetry records heat flow against a reference as temperature is scanned.

`OC[C@H]1O[C@H](O[C@H]2O[C@H](CO)[C@@H](O)[C@H](O)[C@H]2O)[C@H](O)[C@@H](O)[C@@H]1O` [trehalose]: the “Tg(s)” value stood at 118±2 °C.

For the origin of these results see patent US8551942B2, “Lyophilized anti-fungal compositions” (Merck Sharp & Dohme Corp., priority 2007, dated 2013).
